Earlier results, collected in US20120135949A1, “COMBINATION THERAPY FOR TREATING HCV INFECTION” (BOEHRINGER INGELHEIM INTERNATIONAL GMBH, priority 2010, published 2012).

System: HCV
Settings: compound (1) monotherapy, 14 days, 1a and 1b patients

C=C[C@@H]1C[C@]1(NC(=O)[C@@H]1C[C@H](Oc2cc(-c3csc(NC(=O)C(C)C)n3)nc3c(Br)c(OC)ccc23)CN1C(=O)[C@@H](NC(=O)OC1CCCC1)C(C)(C)C)C(=O)O [Compound (1)]
Virologic rebound during the treatment period: vast majority of both 1a and 1b patients demonstrated virologic rebound
